Test results as given in patent publication US8507005B2, “Particulates of a CRTH2 antagonist” (Actimis Pharmaceuticals, Inc., priority 2007, dated 2013).
Converted amounts (≈) assume the structure as drawn. Read-outs that look alike come from different tables or passages of the source.

Legend:
[1] = Thermogravimetric analysis (thermal stability); assay type: physicochemical; settings: TGA, heating rate 20° C./min
Experimental: The thermogravimetric analysis was also conducted on a Mettler 850, TA 2920. Samples were placed into a ceramic or aluminum sample pan. A heating rate of 20° C./min was employed over a temperature range from 20° C. to 600° C.

[2] = Solubility of saturated solutions determined by HPLC; assay type: physicochemical
Experimental: Saturated solutions of {4,6-bis(dimethylamino)-2-(4-(4-(trifluoromethyl)-benzamido)benzyl)pyrimidin-5-yl}acetic acid of Formula I in the solvents listed in Table 1 were prepared from the acid predominantly in Form I, at both 25 and 50° C.

DP1 = biological target: T1, DP1 (Homo sapiens, UniProt Q13258); assay: Competitive radioligand (3H-PGD2) binding assay, DP1-transfected cells; settings: competition with 1 nM 3H-PGD2, DP1-transfected cells, FIG. 11
T1 sequence (Q13258 1-359): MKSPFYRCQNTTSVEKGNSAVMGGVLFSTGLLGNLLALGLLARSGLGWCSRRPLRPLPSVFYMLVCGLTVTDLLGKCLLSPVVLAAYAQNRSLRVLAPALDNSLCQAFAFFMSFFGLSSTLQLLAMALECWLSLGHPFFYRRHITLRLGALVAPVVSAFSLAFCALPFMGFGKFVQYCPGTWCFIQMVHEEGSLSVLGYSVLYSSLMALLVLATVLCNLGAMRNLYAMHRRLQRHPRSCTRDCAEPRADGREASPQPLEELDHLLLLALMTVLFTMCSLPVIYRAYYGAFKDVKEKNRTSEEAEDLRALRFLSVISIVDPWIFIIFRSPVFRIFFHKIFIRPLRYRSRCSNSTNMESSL
Experimental: The binding affinity and selectivity of the amine salts of 4,6-bis(dimethylamino)-2-(4-(4-(trifluoromethyl)benzamido)benzyl)pyrimidin-5-yl}acetic acid provided herein were evaluated using a competitive radioligand binding assay with stably-transfected cell lines expressing CRTH2 or DP1.
Prostaglandin D2 and 13,14-dihydro-15-keto PGD2 were obtained from Cayman Chemical (Ann Arbor, Mich.). Radiolabelled PGD2 (5,6,8,9,12,14,15-^3H(N)) with a specific activity of 160 Ci/mmol was obtained from PerkinElmer (Boston, Mass.). Cell culture medium RPMI 1640, HEPES buffer, phosphate buffered saline (PBS), L-glutamine, and penicillin-streptomycin solution were obtained from Mediatech Inc. (Herndon, Va.). Fetal calf serum (FCS) was obtained from Cambrex (Walkersville, Md.). Puromycin was obtained from Invitrogen (San Diego, Calif.). Poly(ethyleneimine) (PEI) was obtained from Acros Organics (Morris Plains, N.J.). […]
Radioligand binding analyses were performed according to the methods of Sugimoto et al. (J. Pharm. Exp. Therap. 2003, 305, 347-352; Eur. J. Pharmacol. 2005, 524, 30-37). […] Scintillant (50 μL; Microscint™ 20, Perkin Elmer, Boston, Mass.) was added to each well and the radioactivity was counted on a TopCount (Packard Bioscience, Meriden, Conn.). […]

CRTH2 = biological target: T2, CRTH2 (Homo sapiens, UniProt Q9Y5Y4); assay: Competitive radioligand (3H-PGD2) binding assay, CRTH2-transfected cells; settings: competition with 1 nM 3H-PGD2, CRTH2-transfected cells, FIG. 10
T2 construct: expressed in transfected cells
T2 sequence (Q9Y5Y4 1-395): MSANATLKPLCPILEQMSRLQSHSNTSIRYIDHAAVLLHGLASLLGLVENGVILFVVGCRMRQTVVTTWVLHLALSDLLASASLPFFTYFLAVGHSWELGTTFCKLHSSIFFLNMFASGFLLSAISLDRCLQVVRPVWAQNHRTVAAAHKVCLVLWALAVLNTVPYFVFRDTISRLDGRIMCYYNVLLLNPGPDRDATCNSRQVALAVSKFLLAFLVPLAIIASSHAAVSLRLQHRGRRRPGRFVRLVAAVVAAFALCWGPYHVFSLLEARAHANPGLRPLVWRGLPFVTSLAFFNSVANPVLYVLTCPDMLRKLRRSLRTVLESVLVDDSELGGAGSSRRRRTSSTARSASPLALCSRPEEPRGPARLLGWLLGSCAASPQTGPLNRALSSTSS
Source text: Prostaglandin D2 and 13,14-dihydro-15-keto PGD2 were obtained from Cayman Chemical (Ann Arbor, Mich.). Radiolabelled PGD2 (5,6,8,9,12,14,15-^3H(N)) with a specific activity of 160 Ci/mmol was obtained from PerkinElmer (Boston, Mass.). Cell culture medium RPMI 1640, HEPES buffer, phosphate buffered saline (PBS), L-glutamine, and penicillin-streptomycin solution were obtained from Mediatech Inc. (Herndon, Va.). Fetal calf serum (FCS) was obtained from Cambrex (Walkersville, Md.). Puromycin was obtained from Invitrogen (San Diego, Calif.). […]
The surface expression of CRTH2 on the transfected cell lines was monitored periodically during culture and prior to each competitive radioligand binding assay. […] The cells were then washed in 2 mL of FACS buffer (PBS containing 1% BSA (Fraction V) and 0.1% sodium azide. The cells were subsequently incubated on ice with a FITC-conjugated anti-rat antibody (goat anti-rat Ig-FITC). After washed with cold FACS buffer, the cells were analyzed using a FACScan II analyzer and CellQuest software, both from Becton Dickinson (Mountain View, Calif.). […]

CN(C)c1nc(Cc2ccc(NC(=O)c3ccc(C(F)(F)F)cc3)cc2)nc(N(C)C)c1CC(=O)O [Form I, {4,6-bis(dimethylamino)-2-(4-(4-(trifluoromethyl)benzamido)benzyl)pyrimidin-5-yl}acetic acid]
decomposition temperature (no significant weight loss until decomposition) [1]: around 200 °C
solubility ([2]; water, at room temperature, read-out: aqueous solubility): ~3 µg/mL (≈ 5.98 µM)

CN(C)c1nc(Cc2ccc(NC(=O)c3ccc(C(F)(F)F)cc3)cc2)nc(N(C)C)c1CC(=O)O [Formula I, {4,6-bis(dimethylamino)-2-(4-(4-(trifluoro-methyl)benzamido)benzyl)pyrimidin-5-yl}acetic acid]
binding selectivity for CRTH2 versus DP1 (DP1): binds selectively to CRTH2
binding affinity for CRTH2 (CRTH2): high affinity
solubility ([2]; organic solvent or mixture, thermodynamic from solid, 1,4-Dioxane, 25° C., read-out: Solubility): 3370 µg/mL
solubility ([2]; organic solvent or mixture, thermodynamic from solid, 1,4-Dioxane, 50° C., read-out: Solubility): 9830 µg/mL
solubility ([2]; organic solvent or mixture, thermodynamic from solid, 1-Propanol, 25° C., read-out: Solubility): 790 µg/mL
solubility ([2]; organic solvent or mixture, thermodynamic from solid, 1-Propanol, 50° C., read-out: Solubility): 2410 µg/mL
solubility ([2]; organic solvent or mixture, thermodynamic from solid, 2-Methoxyethanol, 25° C., read-out: Solubility): 5350 µg/mL
solubility ([2]; organic solvent or mixture, thermodynamic from solid, 2-Methoxyethanol, 50° C., read-out: Solubility): 8550 µg/mL
solubility ([2]; organic solvent or mixture, thermodynamic from solid, Acetone, 25° C., read-out: Solubility): 2620 µg/mL
solubility ([2]; organic solvent or mixture, thermodynamic from solid, Acetone, 50° C., read-out: Solubility): 3340 µg/mL
solubility ([2]; organic solvent or mixture, thermodynamic from solid, DMSO, 25° C., read-out: Solubility): > 50000 µg/mL
solubility ([2]; organic solvent or mixture, thermodynamic from solid, DMSO, 50° C., read-out: Solubility): > 50000 µg/mL
solubility ([2]; organic solvent or mixture, thermodynamic from solid, Ethanol, 25° C., read-out: Solubility): 1090 µg/mL
solubility ([2]; organic solvent or mixture, thermodynamic from solid, Ethanol, 50° C., read-out: Solubility): 2250 µg/mL
solubility ([2]; organic solvent or mixture, thermodynamic from solid, Ethyl acetate, 25° C., read-out: Solubility): 530 µg/mL
solubility ([2]; organic solvent or mixture, thermodynamic from solid, Ethyl acetate, 50° C., read-out: Solubility): 1270 µg/mL
solubility ([2]; organic solvent or mixture, thermodynamic from solid, Ethyl formate, 25° C., read-out: Solubility): 390 µg/mL
solubility ([2]; organic solvent or mixture, thermodynamic from solid, Ethyl formate, 50° C., read-out: Solubility): 1510 µg/mL
solubility ([2]; organic solvent or mixture, thermodynamic from solid, Isobutyl acetate, 25° C., read-out: Solubility): 200 µg/mL
solubility ([2]; organic solvent or mixture, thermodynamic from solid, Isobutyl acetate, 50° C., read-out: Solubility): 830 µg/mL
solubility ([2]; organic solvent or mixture, thermodynamic from solid, Isopropanol, 25° C., read-out: Solubility): 770 µg/mL
solubility ([2]; organic solvent or mixture, thermodynamic from solid, Isopropanol, 50° C., read-out: Solubility): 1960 µg/mL
solubility ([2]; organic solvent or mixture, thermodynamic from solid, Isopropyl acetate, 25° C., read-out: Solubility): 270 µg/mL
solubility ([2]; organic solvent or mixture, thermodynamic from solid, Isopropyl acetate, 50° C., read-out: Solubility): 780 µg/mL
solubility ([2]; organic solvent or mixture, thermodynamic from solid, MIBK, 25° C., read-out: Solubility): 540 µg/mL
solubility ([2]; organic solvent or mixture, thermodynamic from solid, MIBK, 50° C., read-out: Solubility): 1800 µg/mL
solubility ([2]; organic solvent or mixture, thermodynamic from solid, MTBE, 25° C., read-out: Solubility): 90 µg/mL
solubility ([2]; organic solvent or mixture, thermodynamic from solid, MTBE, 50° C., read-out: Solubility): 410 µg/mL
solubility ([2]; organic solvent or mixture, thermodynamic from solid, Methanol, 25° C., read-out: Solubility): 2230 µg/mL
solubility ([2]; organic solvent or mixture, thermodynamic from solid, Methanol, 50° C., read-out: Solubility): 3040 µg/mL
solubility ([2]; organic solvent or mixture, thermodynamic from solid, Toluene, 50° C., read-out: Solubility): 30 µg/mL
solubility ([2]; organic solvent or mixture, thermodynamic from solid, n-Butanol, 25° C., read-out: Solubility): 790 µg/mL
solubility ([2]; organic solvent or mixture, thermodynamic from solid, n-Butanol, 50° C., read-out: Solubility): 2110 µg/mL
solubility ([2]; saturated solution in DMF, organic solvent or mixture, thermodynamic from solid, DMF, 25° C., read-out: Solubility): > 50000 µg/mL
solubility ([2]; saturated solution in DMF, organic solvent or mixture, thermodynamic from solid, DMF, 50° C., read-out: Solubility): > 50000 µg/mL
solubility ([2]; saturated solution in MEK, organic solvent or mixture, thermodynamic from solid, MEK, 25° C., read-out: Solubility): 1980 µg/mL
solubility ([2]; saturated solution in MEK, organic solvent or mixture, thermodynamic from solid, MEK, 50° C., read-out: Solubility): 4260 µg/mL
solubility ([2]; saturated solution in THF, organic solvent or mixture, thermodynamic from solid, THF, 25° C., read-out: Solubility): 11300 µg/mL
solubility ([2]; saturated solution in THF, organic solvent or mixture, thermodynamic from solid, THF, 50° C., read-out: Solubility): 32700 µg/mL
solubility ([2]; saturated solution in acetonitrile, organic solvent or mixture, thermodynamic from solid, Acetonitrile, 25° C., read-out: Solubility): 240 µg/mL
solubility ([2]; saturated solution in acetonitrile, organic solvent or mixture, thermodynamic from solid, Acetonitrile, 50° C., read-out: Solubility): 940 µg/mL
solubility ([2]; saturated solution in chloroform, organic solvent or mixture, thermodynamic from solid, Chloroform, 25° C., read-out: Solubility): 170 µg/mL
solubility ([2]; saturated solution in chloroform, organic solvent or mixture, thermodynamic from solid, Chloroform, 50° C., read-out: Solubility): 350 µg/mL
solubility ([2]; saturated solution in dichloromethane, organic solvent or mixture, thermodynamic from solid, Dichloromethane, 25° C., read-out: Solubility): 70 µg/mL
solubility ([2]; thermodynamic from solid, Water, 50° C., read-out: Solubility): 20 µg/mL
